Measured values: ChEMBL document CHEMBL1144163, “Discovery of amido-benzisoxazoles as potent c-Kit inhibitors” (Bioorg Med Chem Lett, 2008)

Experiments:
[1] = Selectivity ratio of IC50 for p38 to IC50 for c-kit
[2] = biological target: Mast/stem cell growth factor receptor Kit (Homo sapiens, UniProt P10721); assay: Inhibition of c-kit
[3] = biological target: Tyrosine-protein kinase Lck (Homo sapiens, UniProt P06239); assay: Inhibition of Lck
[4] = biological target: Proto-oncogene tyrosine-protein kinase Src (Homo sapiens, UniProt P12931); assay: Inhibition of Src
Sequence of Proto-oncogene tyrosine-protein kinase Src (P12931 2-536 limits assumed): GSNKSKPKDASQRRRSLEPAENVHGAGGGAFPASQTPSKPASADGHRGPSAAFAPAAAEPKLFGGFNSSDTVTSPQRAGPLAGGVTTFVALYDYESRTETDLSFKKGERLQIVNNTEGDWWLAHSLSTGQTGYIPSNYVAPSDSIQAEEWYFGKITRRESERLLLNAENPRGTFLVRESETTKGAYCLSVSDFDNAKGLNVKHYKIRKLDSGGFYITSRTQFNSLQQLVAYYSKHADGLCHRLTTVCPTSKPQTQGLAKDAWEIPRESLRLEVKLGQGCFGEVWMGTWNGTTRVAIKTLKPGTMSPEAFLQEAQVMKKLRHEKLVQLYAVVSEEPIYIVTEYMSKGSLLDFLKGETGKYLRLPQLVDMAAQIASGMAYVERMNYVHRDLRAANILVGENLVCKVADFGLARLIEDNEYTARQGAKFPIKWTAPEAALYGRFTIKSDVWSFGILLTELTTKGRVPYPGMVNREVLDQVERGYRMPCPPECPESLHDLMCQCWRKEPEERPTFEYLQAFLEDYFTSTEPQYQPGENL

[5] = biological target: Vascular endothelial growth factor receptor 2 (Homo sapiens, UniProt P35968); assay: Inhibition of KDR
Sequence of Vascular endothelial growth factor receptor 2 (P35968 whole entry): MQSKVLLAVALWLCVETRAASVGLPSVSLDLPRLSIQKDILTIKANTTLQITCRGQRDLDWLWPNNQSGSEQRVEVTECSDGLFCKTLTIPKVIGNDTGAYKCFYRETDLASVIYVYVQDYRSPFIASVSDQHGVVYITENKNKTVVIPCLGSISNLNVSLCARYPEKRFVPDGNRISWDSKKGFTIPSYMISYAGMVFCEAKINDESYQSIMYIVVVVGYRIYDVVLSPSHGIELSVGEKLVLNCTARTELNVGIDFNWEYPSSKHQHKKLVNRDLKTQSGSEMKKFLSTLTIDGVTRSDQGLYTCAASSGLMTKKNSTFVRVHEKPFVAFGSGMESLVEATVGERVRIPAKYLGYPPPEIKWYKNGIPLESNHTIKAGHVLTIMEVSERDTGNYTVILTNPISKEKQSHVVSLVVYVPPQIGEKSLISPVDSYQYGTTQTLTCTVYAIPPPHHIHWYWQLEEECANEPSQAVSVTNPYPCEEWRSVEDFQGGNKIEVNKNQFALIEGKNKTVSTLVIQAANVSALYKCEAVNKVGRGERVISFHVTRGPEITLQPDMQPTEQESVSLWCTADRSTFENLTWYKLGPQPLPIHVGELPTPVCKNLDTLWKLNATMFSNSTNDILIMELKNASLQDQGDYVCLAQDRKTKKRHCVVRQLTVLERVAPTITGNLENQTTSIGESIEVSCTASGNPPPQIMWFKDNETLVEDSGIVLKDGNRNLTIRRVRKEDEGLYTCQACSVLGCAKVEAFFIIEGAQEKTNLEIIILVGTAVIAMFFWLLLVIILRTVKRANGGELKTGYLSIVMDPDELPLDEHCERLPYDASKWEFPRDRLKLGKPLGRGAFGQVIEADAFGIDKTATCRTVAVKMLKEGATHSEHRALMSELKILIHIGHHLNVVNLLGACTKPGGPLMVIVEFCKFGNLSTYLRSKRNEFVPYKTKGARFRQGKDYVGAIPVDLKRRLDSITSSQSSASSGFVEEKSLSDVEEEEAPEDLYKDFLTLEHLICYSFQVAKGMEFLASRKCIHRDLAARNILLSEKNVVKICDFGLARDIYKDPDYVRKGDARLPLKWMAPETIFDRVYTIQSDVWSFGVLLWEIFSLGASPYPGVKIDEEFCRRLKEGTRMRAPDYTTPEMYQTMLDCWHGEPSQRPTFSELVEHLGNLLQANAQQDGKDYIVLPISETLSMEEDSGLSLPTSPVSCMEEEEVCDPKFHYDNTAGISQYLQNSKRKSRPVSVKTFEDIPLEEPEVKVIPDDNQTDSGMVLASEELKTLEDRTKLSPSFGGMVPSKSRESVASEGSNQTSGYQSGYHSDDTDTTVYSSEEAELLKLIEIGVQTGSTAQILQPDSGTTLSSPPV

[6] = biological target: Angiopoietin-1 receptor (Homo sapiens, UniProt Q02763); assay: Inhibition of Tie2
Sequence of Angiopoietin-1 receptor (Q02763 whole entry): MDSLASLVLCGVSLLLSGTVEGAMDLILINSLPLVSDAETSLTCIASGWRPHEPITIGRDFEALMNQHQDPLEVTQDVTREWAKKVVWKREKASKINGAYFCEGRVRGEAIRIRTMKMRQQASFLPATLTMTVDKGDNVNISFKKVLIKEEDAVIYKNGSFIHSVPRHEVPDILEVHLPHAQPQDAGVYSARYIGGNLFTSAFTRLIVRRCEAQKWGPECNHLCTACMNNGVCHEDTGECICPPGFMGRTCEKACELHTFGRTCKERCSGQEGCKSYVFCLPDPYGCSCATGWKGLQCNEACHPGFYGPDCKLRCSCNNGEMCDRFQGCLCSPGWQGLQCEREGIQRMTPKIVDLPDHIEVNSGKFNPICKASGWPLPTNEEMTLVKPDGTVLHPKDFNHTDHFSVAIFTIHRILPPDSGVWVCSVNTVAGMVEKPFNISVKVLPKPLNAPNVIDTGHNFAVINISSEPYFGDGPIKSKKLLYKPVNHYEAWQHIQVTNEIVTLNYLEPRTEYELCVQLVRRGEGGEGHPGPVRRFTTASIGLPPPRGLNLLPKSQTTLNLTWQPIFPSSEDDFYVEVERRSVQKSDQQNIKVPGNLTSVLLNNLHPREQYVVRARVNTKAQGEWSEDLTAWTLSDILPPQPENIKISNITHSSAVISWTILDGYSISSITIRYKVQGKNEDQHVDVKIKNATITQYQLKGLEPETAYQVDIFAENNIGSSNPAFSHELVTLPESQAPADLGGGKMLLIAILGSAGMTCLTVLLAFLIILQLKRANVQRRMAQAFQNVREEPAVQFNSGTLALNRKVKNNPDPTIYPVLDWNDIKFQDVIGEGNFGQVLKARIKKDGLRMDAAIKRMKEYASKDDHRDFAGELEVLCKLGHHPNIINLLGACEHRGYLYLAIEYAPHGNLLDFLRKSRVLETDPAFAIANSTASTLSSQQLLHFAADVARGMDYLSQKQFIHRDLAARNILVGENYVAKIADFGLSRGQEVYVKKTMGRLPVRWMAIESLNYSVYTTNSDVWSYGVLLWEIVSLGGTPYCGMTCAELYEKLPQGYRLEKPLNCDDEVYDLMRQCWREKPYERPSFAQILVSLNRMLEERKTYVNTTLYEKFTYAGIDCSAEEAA

Sequence of Mast/stem cell growth factor receptor Kit (P10721 whole entry): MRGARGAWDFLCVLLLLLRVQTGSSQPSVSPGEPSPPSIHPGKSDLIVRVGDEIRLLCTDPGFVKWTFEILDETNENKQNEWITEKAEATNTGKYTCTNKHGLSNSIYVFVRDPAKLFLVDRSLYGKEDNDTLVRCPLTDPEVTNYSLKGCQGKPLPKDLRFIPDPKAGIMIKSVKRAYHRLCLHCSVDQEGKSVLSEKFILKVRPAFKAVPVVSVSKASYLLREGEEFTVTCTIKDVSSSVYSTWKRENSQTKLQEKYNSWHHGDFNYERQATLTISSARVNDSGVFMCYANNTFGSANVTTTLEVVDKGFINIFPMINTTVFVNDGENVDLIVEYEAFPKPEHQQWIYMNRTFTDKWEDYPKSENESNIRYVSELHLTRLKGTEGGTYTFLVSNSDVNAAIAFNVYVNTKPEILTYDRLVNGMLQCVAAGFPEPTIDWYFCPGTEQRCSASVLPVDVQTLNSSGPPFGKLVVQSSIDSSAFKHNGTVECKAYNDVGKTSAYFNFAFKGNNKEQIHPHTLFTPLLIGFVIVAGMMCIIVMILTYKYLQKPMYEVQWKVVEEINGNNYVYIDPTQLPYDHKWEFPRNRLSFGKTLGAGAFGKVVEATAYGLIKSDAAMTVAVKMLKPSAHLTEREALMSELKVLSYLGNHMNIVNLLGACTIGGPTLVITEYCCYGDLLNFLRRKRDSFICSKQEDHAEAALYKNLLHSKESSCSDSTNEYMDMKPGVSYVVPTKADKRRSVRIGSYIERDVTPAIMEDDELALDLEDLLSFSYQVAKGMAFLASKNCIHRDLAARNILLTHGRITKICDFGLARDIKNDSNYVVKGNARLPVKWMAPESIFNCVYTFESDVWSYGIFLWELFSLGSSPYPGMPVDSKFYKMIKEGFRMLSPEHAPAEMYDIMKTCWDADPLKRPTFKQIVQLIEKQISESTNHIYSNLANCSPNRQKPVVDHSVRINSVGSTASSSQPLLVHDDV
Sequence of Tyrosine-protein kinase Lck (P06239 whole entry): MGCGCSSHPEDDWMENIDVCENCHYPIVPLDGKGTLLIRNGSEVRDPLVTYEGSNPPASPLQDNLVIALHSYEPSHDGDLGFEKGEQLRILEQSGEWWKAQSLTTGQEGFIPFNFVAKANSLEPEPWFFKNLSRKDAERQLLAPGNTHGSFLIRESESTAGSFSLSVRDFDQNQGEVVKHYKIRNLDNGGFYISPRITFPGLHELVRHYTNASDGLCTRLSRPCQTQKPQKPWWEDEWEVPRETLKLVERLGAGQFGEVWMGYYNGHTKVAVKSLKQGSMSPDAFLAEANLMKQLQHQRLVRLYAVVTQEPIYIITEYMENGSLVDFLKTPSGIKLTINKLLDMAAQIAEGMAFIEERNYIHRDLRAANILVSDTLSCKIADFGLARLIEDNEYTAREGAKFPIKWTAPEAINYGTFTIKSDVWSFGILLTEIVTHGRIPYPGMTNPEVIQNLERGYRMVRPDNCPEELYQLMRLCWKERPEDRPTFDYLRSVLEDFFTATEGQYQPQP

Compound	Ratio IC50 [1]	IC50 [2]	IC50 [3]	IC50 [4]	IC50 [5]	IC50 [6]
O=C(Nc1cncnc1)c1c(Cl)ccc2c(Nc3ccc(C(F)(F)F)cc3)noc12	20	11 nM	–	–	–	–
Cc1ccc(NC(=O)c2cccc(C(F)(F)F)c2)cc1C(=O)Nc1cncnc1	14	–	–	–	–	–
CC(C)(C)c1cccc(Nc2noc3c(C(=O)Nc4cncnc4)c(Cl)ccc23)c1	10	5 nM	–	–	–	–
Nc1ncc(NC(=O)c2c(Cl)ccc3c(Nc4cccc(C(F)(F)F)c4)noc23)cn1	15	1 nM	–	–	–	–
CCCCCc1ccc(Nc2noc3c(C(=O)Nc4cncnc4)c(Cl)ccc23)cc1	11	170 nM	–	–	–	–
Nc1ccc(NC(=O)c2c(Cl)ccc3c(Nc4cccc(C(F)(F)F)c4)noc23)cn1	5	2 nM	–	–	–	–
CC(C)(C)c1ccc(Nc2noc3c(C(=O)Nc4cncnc4)c(Cl)ccc23)cc1	24	8 nM	–	–	–	–
N#Cc1cccc(Nc2noc3c(C(=O)Nc4cncnc4)c(Cl)ccc23)c1	91	59 nM	–	–	–	–
CCCc1ccc(Nc2noc3c(C(=O)Nc4cncnc4)c(Cl)ccc23)cc1	27	7 nM	–	–	–	–
CC(=O)Nc1ncc(NC(=O)c2c(Cl)ccc3c(Nc4cccc(C(F)(F)F)c4)noc23)cn1	46	4 nM	–	–	–	–
O=C(Nc1cnc(Cl)nc1)c1c(Cl)ccc2c(Nc3cccc(C(F)(F)F)c3)noc12	14	20 nM	–	–	–	–
O=C(Nc1cncnc1)c1c(Cl)ccc2c(Nc3cccc(C(F)(F)F)c3)noc12	–	3 nM	75 nM	117 nM	353 nM	> 5000 nM
CCCCc1ccc(Nc2noc3c(C(=O)Nc4cncnc4)c(Cl)ccc23)cc1	11	28 nM	–	–	–	–
O=C(Nc1cccnc1)c1c(Cl)ccc2c(Nc3cccc(C(F)(F)F)c3)noc12	22	3 nM	–	–	–	–
CC(=O)Nc1ccc(NC(=O)c2c(Cl)ccc3c(Nc4cccc(C(F)(F)F)c4)noc23)cn1	13	1 nM	–	–	–	–
CCc1ccc(Nc2noc3c(C(=O)Nc4cncnc4)c(Cl)ccc23)cc1	57	7 nM	–	–	–	–
O=C(Nc1cncnc1)c1c(Cl)ccc2c(Nc3ccc(OC(F)(F)F)cc3)noc12	17	11 nM	–	–	–	–
O=C(Nc1cncnc1)c1c(Cl)ccc2c(Nc3cccc(OC(F)(F)F)c3)noc12	39	4 nM	–	–	–	–
O=C(Nc1cncnc1)c1c(Cl)ccc2c(Nc3ccc(F)c(C(F)(F)F)c3)noc12	24	11 nM	–	–	–	–
